In patent US11939377B2, “Affinity matured CD22-specific monoclonal antibody and uses thereof” (The U.S.A., as represented by the Secretary, Department of …, priority 2018, dated 2024):

Assays:
Assay type in all cases: cell-based, human
KOPN8 and SEM cell lines = assay: RNA sequencing of Bryostatin 1-treated ALL cell lines
Procedure: FIGS. 4A-4E: (FIGS. 4A-4B) KOPN8 or SEM cell lines were exposed to Bryostatin 1 for 16, 24, 48, or 72 hours. RNA was extracted from cells and analyzed using RNAseq. (FIGS. 4C-4E) Cell lines were co-incubated with 1 ng/ml of Bryostatin 1 for 24 hours. […] IL-2 (FIG. 4C), IFN-γ (FIG. 4D), and granzyme B (FIG. 4E) were measured by ELISA from cell culture supernatants. Statistical significance was calculated using an unpaired t-test (**** p<0.0001, *** p<0.0002, ** p<0.0021, * p<0.0332).
Sixteen RNA-seq samples were pooled and sequenced on one NextSeq high output run using Illumina TruSeq Poly A RNA Kit v3 with paired end sequencing. All samples had greater than 30 million pass filter reads with a base call quality above 95% of bases with Q30 and above. Reads of the samples were trimmed for adapters and low-quality bases using Trimmomatic software before alignment with the reference genome Human—hg19 and the annotated transcripts using STAR. The mapping quality statistics were calculated using Picard software and library complexity was measured in terms of unique fragments in the mapped reads using Picard's MarkDuplicate utility. The Partek Flow informatics pipeline was used to generate fold change and differentially expressed gene data as well as for data visualization. Gene set enrichment analysis (GSEA) of the differentially expressed genes was performed as previously described and using standard parameters.

CD22 = assay: Immunofluorescent staining of CD22 in permeabilized leukemia cells; details: 24 hours after exposure, 1 nM
Procedure: FIGS. 10A-10E: (FIG. 10A) Three cell lines (Toldeo, Kopn8 and Nalm6) were co-incubated with Bryostatin 1 at varying concentrations for 24 hours. At 24 hours, cells were collected for protein kinase C (PKC)-βII isoform analysis by western blot. (FIG. 10B) KOPN8 or SEM cell lines were exposed to Bryostatin 1 for 16, 24, 48 or 72 hours. RNA was extracted from cells and analyzed using RNAseq. (FIG. 10C) Immunofluorescent staining of CD22 was conducted through permeabilization followed by staining of CD22. (FIG. 10D) Four cell lines were co-incubated with various combinations of Enzastaurin (10 μM), Staurosporine (100 μM), or Bryostatin 1 (1 nM) for 24 hours. CD22 expression was assessed using flow cytometry. MFI fold change=CD22 MFI^Bryostatin1/CD22 MFI^DMSO. (FIG. 10E) Cell lines were co-incubated with 1 nM Bryostatin 1 for 24 hours and measured for CD22 expression using CD22-PE antibody. MFI fold change=CD22 MFI^Bryostatin 1/CD22 MFI^DMSO.
μ-dish 35 mm, high glass bottom dishes (Ibidi Inc, Madison, WI) were coated with poly-D-lysine for 2 hours and then seeded with 5×10^5 leukemia cells, which had been pre-treated with either 1 nM Bryostatin 1 or DMSO control for 24 hours. Approximately 12 hours after seeding, cells were fixed in 4% paraformaldehyde and then permeabilized with 0.2% Triton X-100 detergent. […]

[1] = system: CD22^neg, CD22^lo or Nalm6 cells; assay: In vitro leukemia clearance assay (IncuCyte, loss of GFP-positive cells); details: effector-to-target 1:1
Procedure: Cell death was monitored by loss of GFP-positive cells using Incucyte analysis. (FIG. 2B) NSG mice were injected with 1×10^6 GPF-positive CD22neg, CD22lo, or Nalm6 tumor cells on Day 0. […] Mice were imaged using IVIS technology after luciferin-D IP injection. […] Cells were stained for flow cytometry and analyzed on a Fortessa flow machine. (FIG. 2E) Site density cell lines were co-incubated with CD22 CART for 24 hours, and PD1 expression was stained for flow cytometry and analyzed on Fortessa flow machine. MFI=mean fluorescence intensity. […] (FIG. 2G) CD22 site density was evaluated using flow cytometry and Quantibrite analysis for CRISPR-edited Nalm6 cell lines.
FIGS. 5A-5D: (FIGS. 5A-5B) CD22 CART cells were co-incubated with 1 ng/ml of Bryostatin 1 for 24 hours and washed. […] IFN-γ (FIG. 5A) and granzyme B (FIG. 5B) were measured by ELISA from cell culture supernatants. Statistical analysis was performed using an unpaired t-test (**** p<0.0001, *** p<0.0002, ** p<0.0021, * p<0.0332). […] Cell death was monitored by loss of GFP-positive cells using Incucyte analysis. (FIG. 5D) NSG mice were injected with Nalm6 on Day 0, CD22 CART cells on Day 3, and then were given either DMSO control or Bryostatin 1 at 0.8 μg/kg once weekly for 2 weeks. Leukemia progression was monitored using IVIS technology and luciferin-D IP injections. […]

CCC/C=C/C=C/C(=O)O[C@H]1/C(=C/C(=O)OC)C[C@H]2C[C@H]([C@@H](C)O)OC(=O)C[C@H](O)C[C@@H]3C[C@H](OC(C)=O)C(C)(C)[C@](O)(C[C@@H]4C/C(=C/C(=O)OC)C[C@H](/C=C/C(C)(C)[C@]1(O)O2)O4)O3 [Bryostatin 1]
genes with 2-fold increased expression versus control (KOPN8 and SEM cell lines; KOPN8): 756 genes
genes with a greater than 2-fold change (KOPN8 and SEM cell lines; KOPN8, 24 hours): 1524 genes
CD22 mRNA over the course of treatment (KOPN8 and SEM cell lines; KOPN8 and SEM, 16, 24, 48, 72 hours): Neither cell line showed changes
genes with a 2-fold change (KOPN8 and SEM cell lines; SEM): only one gene
vacuolated CD22 compared to DMSO controls (CD22): less vacuolated CD22
kinetics of leukemic clearance in vitro by drug-exposed CAR T cells [1]: no change
